Source: patent US7902361B2, “Pyrimidin-4-yl-3, 4-thione compounds and their use in therapy” (Cyclacel Limited, priority 2003, dated 2011)

How the values were obtained:
Format in all cases: biochemical
CDK1/cyclin B = CDK1/cyclin B (Homo sapiens, UniProt P06493); experiment: Kinase assay CDK1/cyclin B (radioactive phosphate incorporation); details: Ki calculated (Cheng-Prusoff) from experimentally determined IC50 and Km,ATP; read-out: Kinase Inhibition Ki CDK1 - cyclin B
Protocol: (§1) The compounds from the examples above were investigated for their ability to inhibit the enzymatic activity of various protein kinases. This was achieved by measurement of incorporation of radioactive phosphate from ATP into appropriate polypeptide substrates. Recombinant protein kinases and kinase complexes were produced or obtained commercially. Assays were performed using 96-well plates and appropriate assay buffers (typically 25 mM β-glycerophosphate, 20 mM MOPS, 5 mM EGTA, 1 mM DTT, 1 mM […], pH 7.4), into which were added 2-4 μg of active enzyme with appropriate substrates. […] Reactions were stopped on ice, followed by filtration through p81 filterplates or GF/C filterplates (Whatman Polyfiltronics, Kent, UK). After washing 3 times with 75 mM aq orthophosphoric acid, plates were dried, scintillant added and incorporated radioactivity measured in a scintillation counter (TopCount, Packard Instruments, Pangbourne, Berks, UK). Compounds for kinase assay were made up as 10 mM stocks in DMSO and diluted into 10% DMSO in assay buffer.

CDK2/cyclin E = CDK2/cyclin E (Homo sapiens, UniProt P24941); experiment: Kinase assay CDK2/cyclin E; details: Ki calculated (Cheng-Prusoff) from experimentally determined IC50 and Km,ATP; read-out: Kinase Inhibition Ki CDK2 - cyclin E
Protocol: as §1

CDK2/cyclin A = CDK2/cyclin A (Homo sapiens, UniProt P24941); experiment: Kinase assay CDK2/cyclin A; details: Ki calculated (Cheng-Prusoff) from experimentally determined IC50 and Km,ATP; read-out: Kinase Inhibition Ki CDK2 - cyclin A
Protocol: as §1

CDK4/cyclin D1 = CDK4/cyclin D1 (Homo sapiens, UniProt P11802); experiment: Kinase assay CDK4/cyclin D1; details: Ki calculated (Cheng-Prusoff) from experimentally determined IC50 and Km,ATP; read-out: Kinase Inhibition Ki CDK4 - cyclin D1
Chain of CDK4/cyclin D1 (P11802 whole entry, species assumed): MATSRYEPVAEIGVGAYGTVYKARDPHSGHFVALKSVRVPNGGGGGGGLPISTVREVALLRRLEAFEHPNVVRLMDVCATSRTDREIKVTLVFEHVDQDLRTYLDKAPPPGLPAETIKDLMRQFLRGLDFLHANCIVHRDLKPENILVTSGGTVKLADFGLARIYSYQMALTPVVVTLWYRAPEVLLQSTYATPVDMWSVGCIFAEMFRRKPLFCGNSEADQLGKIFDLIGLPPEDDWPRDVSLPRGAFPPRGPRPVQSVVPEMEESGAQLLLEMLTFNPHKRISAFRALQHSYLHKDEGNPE
Chain of CDK4/cyclin D1 (P24385 whole entry partner, species assumed): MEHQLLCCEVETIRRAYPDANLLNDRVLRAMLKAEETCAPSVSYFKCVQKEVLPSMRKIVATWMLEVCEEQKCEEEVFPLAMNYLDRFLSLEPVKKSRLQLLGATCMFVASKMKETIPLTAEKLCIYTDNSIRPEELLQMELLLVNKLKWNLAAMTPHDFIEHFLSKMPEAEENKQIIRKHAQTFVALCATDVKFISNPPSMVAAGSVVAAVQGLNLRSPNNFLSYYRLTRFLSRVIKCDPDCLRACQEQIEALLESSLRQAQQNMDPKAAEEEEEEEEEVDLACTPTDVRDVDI
Protocol: (§2) The compounds from the examples above were investigated for their ability to inhibit the enzymatic activity of various protein kinases. This was achieved by measurement of incorporation of radioactive phosphate from ATP into appropriate polypeptide substrates. Recombinant protein kinases and kinase complexes were produced or obtained commercially. Assays were performed using 96-well plates and appropriate assay buffers (typically 25 mM β-glycerophosphate, 20 mM MOPS, 5 mM EGTA, 1 mM DTT, 1 mM […], pH 7.4), into which were added 2-4 μg of active enzyme with appropriate substrates. The reactions were initiated by addition of Mg/ATP mix (15 mM MgCl2+100 μM ATP with 30-50 kBq per well of [γ-^32P]-ATP) and mixtures incubated as required at 30° C. Reactions were stopped on ice, followed by filtration through p81 filterplates or GF/C filterplates (Whatman Polyfiltronics, Kent, UK). After washing 3 times with 75 mM aq orthophosphoric acid, plates were dried, scintillant added and incorporated radioactivity measured in a scintillation counter (TopCount, Packard Instruments, Pangbourne, Berks, UK). Compounds for kinase assay were made up as 10 mM stocks in DMSO and diluted into 10% DMSO in assay buffer.

CDK7/cyclin H = CDK7/cyclin H (Homo sapiens, UniProt P50613); experiment: Kinase assay CDK7/cyclin H; details: Ki calculated (Cheng-Prusoff) from experimentally determined IC50 and Km,ATP; read-out: Kinase Inhibition Ki CDK7 - cyclin H
Chain of CDK7/cyclin H (P50613 whole entry, species assumed): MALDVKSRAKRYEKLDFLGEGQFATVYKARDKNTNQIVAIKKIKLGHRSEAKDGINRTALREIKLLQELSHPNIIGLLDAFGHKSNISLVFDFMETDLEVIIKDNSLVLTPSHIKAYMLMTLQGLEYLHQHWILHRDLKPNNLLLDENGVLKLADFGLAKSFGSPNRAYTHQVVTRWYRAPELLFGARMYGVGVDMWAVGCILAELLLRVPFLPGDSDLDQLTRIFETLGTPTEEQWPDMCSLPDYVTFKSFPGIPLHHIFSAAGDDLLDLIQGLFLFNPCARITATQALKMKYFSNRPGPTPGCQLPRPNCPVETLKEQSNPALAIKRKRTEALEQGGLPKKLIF
Chain of CDK7/cyclin H (P51946 whole entry partner, species assumed): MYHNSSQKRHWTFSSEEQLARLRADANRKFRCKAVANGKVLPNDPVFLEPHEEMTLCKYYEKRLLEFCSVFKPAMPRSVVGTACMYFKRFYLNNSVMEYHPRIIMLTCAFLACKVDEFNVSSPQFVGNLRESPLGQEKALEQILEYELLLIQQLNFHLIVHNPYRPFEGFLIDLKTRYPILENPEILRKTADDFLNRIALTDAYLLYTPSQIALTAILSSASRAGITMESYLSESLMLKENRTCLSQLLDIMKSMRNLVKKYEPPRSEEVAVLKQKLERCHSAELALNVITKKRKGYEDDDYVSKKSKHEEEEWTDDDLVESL
Protocol: as §2

CDK9/cyclin T1 = CDK9/cyclin T1 (Homo sapiens, UniProt P50750); experiment: Kinase assay CDK9/cyclin T1; details: Ki calculated (Cheng-Prusoff) from experimentally determined IC50 and Km,ATP; read-out: Kinase Inhibition Ki CDK9 - cyclin T1
Chain of CDK9/cyclin T1 (P50750 whole entry, species assumed): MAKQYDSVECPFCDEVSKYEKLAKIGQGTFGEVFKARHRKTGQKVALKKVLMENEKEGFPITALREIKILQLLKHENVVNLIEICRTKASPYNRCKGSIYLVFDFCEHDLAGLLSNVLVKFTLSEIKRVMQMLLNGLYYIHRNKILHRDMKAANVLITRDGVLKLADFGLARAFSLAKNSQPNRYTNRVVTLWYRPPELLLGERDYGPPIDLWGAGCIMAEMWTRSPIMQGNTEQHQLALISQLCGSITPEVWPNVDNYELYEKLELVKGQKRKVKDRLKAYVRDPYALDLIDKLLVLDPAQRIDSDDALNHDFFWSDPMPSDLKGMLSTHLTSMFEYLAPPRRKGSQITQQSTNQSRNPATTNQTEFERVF
Chain of CDK9/cyclin T1 (O60563 whole entry partner, species assumed): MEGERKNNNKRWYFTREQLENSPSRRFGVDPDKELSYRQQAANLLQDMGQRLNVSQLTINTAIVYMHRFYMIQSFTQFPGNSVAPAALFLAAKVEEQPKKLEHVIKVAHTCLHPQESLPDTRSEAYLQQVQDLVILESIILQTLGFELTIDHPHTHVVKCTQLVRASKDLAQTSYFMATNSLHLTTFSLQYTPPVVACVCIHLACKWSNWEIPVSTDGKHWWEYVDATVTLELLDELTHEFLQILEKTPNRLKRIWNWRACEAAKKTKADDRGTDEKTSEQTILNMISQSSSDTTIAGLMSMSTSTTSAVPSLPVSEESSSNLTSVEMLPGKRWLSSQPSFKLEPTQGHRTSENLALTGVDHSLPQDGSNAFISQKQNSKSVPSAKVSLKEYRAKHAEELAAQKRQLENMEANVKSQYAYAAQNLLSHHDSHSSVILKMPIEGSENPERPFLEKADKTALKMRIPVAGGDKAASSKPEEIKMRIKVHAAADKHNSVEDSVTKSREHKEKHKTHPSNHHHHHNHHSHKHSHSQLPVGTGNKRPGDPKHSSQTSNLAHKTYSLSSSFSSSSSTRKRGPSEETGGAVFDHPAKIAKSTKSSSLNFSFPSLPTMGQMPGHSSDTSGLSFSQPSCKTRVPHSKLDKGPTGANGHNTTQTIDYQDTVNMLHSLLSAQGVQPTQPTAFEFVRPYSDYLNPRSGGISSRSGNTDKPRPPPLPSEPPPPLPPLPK
Protocol: as §2

aurora A = target: T1, aurora A (Homo sapiens, UniProt O14965); experiment: Kinase assay aurora A; details: Ki calculated (Cheng-Prusoff) from experimentally determined IC50 and Km,ATP; read-out: Kinase Inhibition Ki Aurora A
T1 sequence (O14965 1-403): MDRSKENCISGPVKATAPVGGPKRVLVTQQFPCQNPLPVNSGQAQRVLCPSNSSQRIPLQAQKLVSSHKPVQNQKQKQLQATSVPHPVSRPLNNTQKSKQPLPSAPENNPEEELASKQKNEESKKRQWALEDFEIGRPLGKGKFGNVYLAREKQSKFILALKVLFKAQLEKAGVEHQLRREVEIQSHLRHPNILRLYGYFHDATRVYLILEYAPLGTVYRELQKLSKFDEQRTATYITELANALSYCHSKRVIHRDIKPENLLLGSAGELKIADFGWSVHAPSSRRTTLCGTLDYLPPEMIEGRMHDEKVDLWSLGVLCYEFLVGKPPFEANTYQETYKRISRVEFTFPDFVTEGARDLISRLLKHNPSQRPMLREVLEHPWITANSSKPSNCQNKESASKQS
Protocol: as §1

GSK3β = target: T2, GSK3β (Homo sapiens, UniProt P49841); experiment: GSK3β in vitro kinase assay; details: recombinant human GSK3β, 100 μM ATP
T2 construct: purchased New England Biolabs
T2 sequence (P49841 whole entry): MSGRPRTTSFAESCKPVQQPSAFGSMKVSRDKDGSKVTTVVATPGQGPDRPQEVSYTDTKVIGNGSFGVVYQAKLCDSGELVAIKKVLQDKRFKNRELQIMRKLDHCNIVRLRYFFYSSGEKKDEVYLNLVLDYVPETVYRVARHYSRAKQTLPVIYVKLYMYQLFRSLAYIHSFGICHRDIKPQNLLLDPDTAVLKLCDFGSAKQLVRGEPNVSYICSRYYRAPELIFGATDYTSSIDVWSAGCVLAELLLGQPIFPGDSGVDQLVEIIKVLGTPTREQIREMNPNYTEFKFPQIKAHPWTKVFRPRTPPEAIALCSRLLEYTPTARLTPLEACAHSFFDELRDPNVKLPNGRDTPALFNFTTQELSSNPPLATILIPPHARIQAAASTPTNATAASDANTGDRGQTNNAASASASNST
Protocol: Both isoforms of GSK3 (α and β) are involved in the regulation of glycogen synthase activity—key enzyme in the glycogen metabolism.
A 10-point titration was set up to determine the IC50 values of selected example compounds against GSK3β. Assays were performed using 96-well microtiter plates with a final volume of 25 μL per well. Each assay contained 1.5 units of GSK3β(New England Biolabs), 200 μM CREB phosphopeptide ([…]pSYR, Alta Biosciences), 20 mM Tris HCl pH7.5, 5 mM DTT, 15 mM MgCl2 supplemented with 100 μM ATP and 0.5 μCi of [γ-^32P] ATP plus or minus inhibitor in 2% DMSO. Assays were carried out for 30 minutes at 30° C. before stopping the reaction by the addition of an equal volume of 75 mM aqueous phosphoric acid. Samples were then spotted onto a p81 filterplate (Whatman) and a vacuum was applied. Wells were washed 3 times with 200 μL of dilute aqueous phosphoric acid before the addition of 50 μL Microscint 40 per well. Incorporation of radioactivity was determined on a Topcount microplate scintillation counter (Packard).

Chain of CDK1/cyclin B (P06493 whole entry, species assumed): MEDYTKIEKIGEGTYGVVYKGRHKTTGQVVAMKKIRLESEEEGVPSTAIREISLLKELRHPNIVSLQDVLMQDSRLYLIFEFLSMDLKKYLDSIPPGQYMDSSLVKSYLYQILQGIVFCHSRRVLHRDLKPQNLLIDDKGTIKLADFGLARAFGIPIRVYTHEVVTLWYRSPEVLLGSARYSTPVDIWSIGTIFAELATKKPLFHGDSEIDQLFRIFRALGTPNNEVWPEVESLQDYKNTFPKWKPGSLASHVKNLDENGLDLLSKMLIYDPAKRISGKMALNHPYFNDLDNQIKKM
Chain of CDK1/cyclin B (P14635 whole entry partner, species assumed): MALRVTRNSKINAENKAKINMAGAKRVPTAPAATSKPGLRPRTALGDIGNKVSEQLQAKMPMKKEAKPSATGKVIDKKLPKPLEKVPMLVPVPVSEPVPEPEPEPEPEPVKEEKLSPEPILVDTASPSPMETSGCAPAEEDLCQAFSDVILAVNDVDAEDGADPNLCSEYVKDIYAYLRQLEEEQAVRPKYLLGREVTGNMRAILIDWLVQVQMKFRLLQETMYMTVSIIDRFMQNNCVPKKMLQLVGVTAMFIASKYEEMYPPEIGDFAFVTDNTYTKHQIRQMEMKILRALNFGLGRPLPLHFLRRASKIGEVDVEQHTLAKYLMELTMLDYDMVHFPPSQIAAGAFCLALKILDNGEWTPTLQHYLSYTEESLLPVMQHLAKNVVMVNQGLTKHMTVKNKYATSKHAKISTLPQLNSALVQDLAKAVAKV

Row | SMILES | Ki (CDK1/cyclin B) [nM] | Ki (CDK2/cyclin E) [nM] | Ki (CDK2/cyclin A) [nM] | Ki (CDK4/cyclin D1) [nM] | Ki (CDK7/cyclin H) [nM] | Ki (CDK9/cyclin T1) [nM] | Ki (aurora A) [nM] | IC50 (GSK3β) [nM]
1 | CCn1c(C)c(-c2ccnc(Nc3ccc(C)c(O)c3)n2)sc1=O [Compound 47, 3-Ethyl-5-[2-(3-hydroxy-4-methyl-phenylamino)-pyrimidin-4-yl]-4-methyl-3H-thiazol-2-one] | 180 | 15 | 87 | 1800 | 17 | 3 | 53 | 30.8
2 | CC(=O)N1CCN(c2cccc(Nc3nccc(-c4sc(=O)n(C)c4C)n3)c2)CC1 [Compound 49, 5-{2-[3-(4-Acetyl-piperazin-1-yl)-phenylamino]-pyrimidin-4-yl}-3,4-dimethyl-3H-thiazol-2-one] | 930 | 1300 | 3000 | 9.7 | 1100 | 30 | 110 | 380
3 | Cc1c(-c2ccnc(Nc3cccc(CNS(C)(=O)=O)c3)n2)sc(=O)n1C [Compound 55, N-{3-[4-(3,4-Dimethyl-2-oxo-2,3-dihydro-thiazol-5-yl)-pyrimidin-2-ylamino]-benzyl}-methane-sulfonamide] | 160 | 39 | 42 | 110 | 110 | 2.2 | 46 | 82
4 | COc1ccc(C)c(Nc2nccc(-c3sc(=O)n(C)c3C)n2)c1 [Compound 56, 5-[2-(5-Methoxy-2-methyl-phenylamino)-pyrimidin-4-yl]-3,4-dimethyl-3H-thiazol-2-one] |  |  |  |  | 2900 | 460 | 2600 | 3500
5 | COCCNS(=O)(=O)c1ccc(Nc2nccc(-c3sc(=O)n(C)c3C)n2)cc1 [Compound 65, 4-[4-(3,4-Dimethyl-2-oxo-2,3-dihydro-thiazol-5-yl)-pyrimidin-2-ylamino]-N-(2-methoxy-ethyl)-benzenesulfonamide] | 4.1 |  |  |  | 940 | 14 | 530 | 9
6 | Cc1ccc(Nc2nccc(-c3sc(=O)n(C)c3C)n2)cc1S(=O)(=O)N1CCOCC1 [Compound 78, 3,4-Dimethyl-5-{2-[4-methyl-3-(morpholine-4-sulfonyl)-phenylamino]-pyrimidin-4-yl}-3H-thiazol-2-one] |  | 2100 |  |  | 1200 | 27 | 1100 | 130
7 | Cc1c(-c2ccnc(Nc3cccc(S(=O)(=O)N4CCOCC4)c3)n2)sc(=O)n1C [Compound 79, 3,4-Dimethyl-5-{2-[3-(morpholine-4-sulfonyl)-phenylamino]-pyrimidin-4-yl}-3H-thiazol-2-one] |  | 1500 |  |  | 2600 |  | 1400 | 35.6
8 | Cc1c(-c2ccnc(Nc3ccc(CNC(=O)c4ccccn4)cc3)n2)sc(=O)n1C [Compound 82, Pyridine-2-carboxylic acid 4-[4-(3,4-dimethyl-2-oxo-2,3-dihydro-thiazol-5-yl)-pyrimidin-2-ylamino]-benzylamide] |  |  |  |  |  |  | 63 | 28.1

The remaining compounds from weak to strong by Ki (aurora A), led by results:

Row | Ki (CDK1/cyclin B) [nM] | Ki (CDK2/cyclin E) [nM] | Ki (CDK2/cyclin A) [nM] | Ki (CDK4/cyclin D1) [nM] | Ki (CDK7/cyclin H) [nM] | Ki (CDK9/cyclin T1) [nM] | Ki (aurora A) [nM] | IC50 (GSK3β) [nM] | SMILES
9 |  | 570 | 400 |  | 790 | 57 | 1100 | 101 | CCn1c(C)c(-c2ccnc(Nc3ccc(Cl)cc3)n2)sc1=O [Compound 46, 5-[2-(4-Chloro-phenylamino)-pyrimidin-4-yl]-3-ethyl-4-methyl-3H-thiazol-2-one]
10 |  | 1400 |  | 980 | 2700 | 50 | 870 | 75 | Cc1c(-c2ccnc(Nc3cccc(S(=O)(=O)NC(C)C)c3)n2)sc(=O)n1C [Compound 74, 3-[4-(3,4-Dimethyl-2-oxo-2,3-dihydro-thiazol-5-yl)-pyrimidin-2-ylamino]-N-isopropyl-benzenesulfonamide]
11 | 1100 | 100 | 600 | 5100 | 96 | 6.4 | 840 | 23.3 | Cc1c(-c2ccnc(Nc3cccc(CNS(=O)(=O)C(F)(F)F)c3)n2)sc(=O)n1C [Compound 58, N-{3-[4-(3,4-Dimethyl-2-oxo-2,3-dihydro-thiazol-5-yl)-pyrimidin-2-ylamino]-benzyl}-C,C,C-trifluoro-methanesulfonamide]
12 |  |  |  |  |  |  | 500 | 3.2 | Cc1cc(Nc2nccc(-c3sc(=O)n(C)c3C)n2)cnc1Cl [Compound 81, 5-[2-(6-Chloro-5-methyl-pyridin-3-ylamino)-pyrimidin-4-yl]-3,4-dimethyl-3H-thiazol-2-one]
13 | 360 | 52 | 540 | 21 | 1300 | 1.6 | 160 | 17.8 | Cc1c(-c2ccnc(Nc3cccc(CNC(=O)c4ccccc4)c3)n2)sc(=O)n1C [Compound 57, N-{3-[4-(3,4-Dimethyl-2-oxo-2,3-dihydro-thiazol-5-yl)-pyrimidin-2-ylamino]-benzyl}-benzamide]
14 | 140 |  | 280 | 170 | 73 |  | 110 | 5.3 | Cc1c(-c2ccnc(Nc3cc(N)cc(C(F)(F)F)c3)n2)sc(=O)n1C [Compound 71, 5-[2-(3-Amino-5-trifluoromethyl-phenylamino)-pyrimidin-4-yl]-3,4-dimethyl-3H-thiazol-2-one]
15 | 300 | 24 | 52 | 5000 | 220 | 11 | 43 | 15.2 | CCn1c(C)c(-c2ccnc(Nc3ccc(F)cc3)n2)sc1=O [Compound 45, 3-Ethyl-5-[2-(4-fluoro-phenylamino)-pyrimidin-4-yl]-4-methyl-3H-thiazol-2-one]
16 | 86 | 62 | 99 | 36 | 19 | 3.4 | 38 | 17.8 | Cc1c(-c2ccnc(Nc3ccc(N4CCNCC4)c(Cl)c3)n2)sc(=O)n1C [Compound 44, 5-[2-(3-Chloro-4-piperazin-1-yl-phenylamino)-pyrimidin-4-yl]-3,4-dimethyl-3H-thiazol-2-one]
